The text below walks through data of patent US9376391B2, “Difluoromethyl-nicotinic-tetrahydronaphthyl carboxamides as fungicides” (BAYER CROPSCIENCE AKTIENGESELLSCHAFT, priority 2012, dated 2016).

Data set [1] is described as follows: log P by HPLC on reversed phase columns (EEC directive 79/831 Annex V.A8). The class given is physicochemical. As to conditions: Table 1, formula (I); HPLC/LC-MS at pH 2.7, 0.1% formic acid in water / acetonitrile, gradient 10% to 95%.
A further data set concerns Alternaria brassicae. Description: In vivo preventive test on Alternaria brassicae (leaf spot on radish). Conditions: spray, graded 6 days after contamination vs control plants. The protocol:
In Vivo Preventive Test on Alternaria brassicae (Leaf Spot on Radish)
(§1) The active ingredients tested are prepared by homogenization in a mixture of acetone/tween/DMSO, and then diluted with water to obtain the desired active material concentration.
Radish plants (“Pernod Clair” variety), sown in starter cups on a 50/50 peat soil-pozzolana substrate and grown at 17° C., are treated at the cotyledon stage by spraying with the active ingredient prepared as described above. Plants, used as controls, are treated with the mixture of acetone/tween/DMSO/water not containing the active material.
After 24 hours, the plants are contaminated by spraying the cotyledons with an aqueous suspension of Alternaria brassicae spores (50 000 spores per ml). The spores are collected from a 15-day-old culture. The contaminated radish plants are incubated at 20° C. and at 100% relative humidity.
Grading (% of efficacy) is carried out 6 days after the contamination, in comparison with the control plants.

The subject of a further data set is Pyrenophora teres. The data set can be described thus: In vivo preventive test on Pyrenophora teres (net blotch on barley). As to conditions: barley, spray, graded 14 days after contamination vs control plants. The protocol: In Vivo Preventive Test on Pyrenophora teres (Net Blotch on Barley)
as §1
Barley plants (“Plaisant” variety), sown in starter cups on a 50/50 peat soil-pozzolana substrate and grown at 22° C., are treated at the 1-leaf stage (10 cm height) by spraying with the active ingredient prepared as described above. Plants, used as controls, are treated with the mixture of acetone/tween/DMSO/water not containing the active material.
After 24 hours, the plants are contaminated by spraying the leaves with an aqueous suspension of Pyrenophora teres spores (12 000 spores per ml). The spores are collected from a 12-day-old culture. The contaminated barley plants are incubated for 48 hours at 20° C. and at 100% relative humidity, and then for 12 days at 20° C. at 70-80% relative humidity.
Grading (% of efficacy) is carried out 14 days after the contamination, in comparison with the control plants. plants.

In another data set the test system is Puccinia recondita. The data set can be described thus: In vivo preventive test on Puccinia recondita (brown rust on wheat). As to conditions: wheat, spray, graded 12 days after contamination vs control plants. The protocol: In Vivo Preventive Test on Puccinia recondita (Brown Rust on Wheat) […] Wheat plants (“Scipion” variety), sown in starter cups on a 50/50 peat soil-pozzolana substrate and grown at 22° C., are treated at the 1-leaf stage (10 cm height) by spraying with the active ingredient prepared as described above. Plants, used as controls, are treated with the mixture of acetone/tween/DMSO/water not containing the active material. After 24 hours, the plants are contaminated by spraying the leaves with an aqueous suspension of Puccinia recondita spores (100 000 spores per ml). The spores are collected from an infected plant and are suspended in water containing 2.5 ml/1 of Tween 80 at 10%. The contaminated wheat plants are incubated for 24 hours at 20° C. and at 100% relative humidity, and then for 10 days at 20° C. and at 70-80% relative humidity. Grading (% of efficacy) is carried out 12 days after the contamination, in comparison with the control plants.

In the next data set the test system is Septoria tritici. The data set can be described thus: In vivo preventive test on Septoria tritici (leaf spot on wheat). Conditions: preventive spray, wheat plants, grading 24 days after contamination. Here is the method:
In Vivo Preventive Test on Septoria tritici (Leaf Spot on Wheat)
as §1
Wheat plants (“Scipion” variety), sown in starter cups on a 50/50 peat soil-pozzolana substrate and grown at 22° C., are treated at the 1-leaf stage (10 cm height) by spraying with the active ingredient prepared as described above. Plants, used as controls, are treated with the mixture of acetone/tween/DMSO/water not containing the active material.
After 24 hours, the plants are contaminated by spraying the leaves with an aqueous suspension of cryopreserved Septoria tritici spores (500 000 spores per ml). The contaminated wheat plants are incubated for 72 hours at 18° C. and at 100% relative humidity, and then for 21 days at 90% relative humidity.
Grading (% of efficacy) is carried out 24 days after the contamination, in comparison with the control plants.

The test system of a further data set is Uromyces appendiculatus. The data set can be described thus: In vivo preventive test on Uromyces appendiculatus (bean rust). Conditions: preventive spray, bean plants, grading 11 days after contamination. The protocol:
In Vivo Preventive Test on Uromyces appendiculatus (Bean Rust) […] Bean plants (“Saxa” variety), sown in starter cups on a 50/50 peat soil-pozzolana substrate and grown at 24° C., are treated at the 2-leaf stage (9 cm height) by spraying with the active ingredient prepared as described above. Plants, used as controls, are treated with the mixture of acetone/tween/DMSO/water not containing the active material. After 24 hours, the plants are contaminated by spraying the leaves with an aqueous suspension of Uromyces appendiculatus spores (150 000 spores per ml). The spores are collected from infected plants and are suspended in water containing 2.5 ml/1 of Tween 80 at 10%. The contaminated bean plants are incubated for 24 hours at 20° C. and at 100% relative humidity, and then for 10 days at 20° C. and at 70-80% relative humidity. Grading (% of efficacy) is carried out 11 days after the contamination, in comparison with the control plants.

Another data set has as its system Botrytis cinerea. The data set can be described thus: In vivo preventive test on Botrytis cinerea (grey mould), gherkin plants. Conditions: gherkin, spray, graded 4 to 5 days after contamination vs control plants. Here is the method: In Vivo Preventive Test on Botrytis cinerea (Grey Mould)
(§2) The active ingredients tested are prepared by homogenization in a mixture of acetone/tween/DMSO and then diluted with water to obtain the desired active material concentration.
(§3) Gherkin plants (“Vert petit de Paris” variety), sown in starter cups on a 50/50 peat soil-pozzolana substrate and grown at 24° C., are treated at the Z11 cotyledon stage by spraying with the active ingredient prepared as described above. Plants, used as controls, are treated with the mixture of acetone/tween/DMSO/water not containing the active material.
After 24 hours, the plants are contaminated by spraying the cotyledons with an aqueous suspension of cryopreserved Botrytis cinerea spores (50 000 spores per ml). The spores are suspended in a nutrient solution composed of 10 g/L of PDB, 50 g/L of D-Fructose, 2 g/L of NH4NO3 and 1 g/L of KH2PO4. The contaminated gherkin plants are incubated at 17° C. and at 90% relative humidity.
Grading (% of efficacy) is carried out 4 to 5 days after the contamination, in comparison with the control plants.

For a further data set, the system named is Sphaerotheca fuliginea. Description: In vivo preventive test on Sphaerotheca fuliginea (powdery mildew on cucurbits). Conditions: preventive spray, gherkin plants, grading 12 days after contamination. The protocol: In Vivo Preventive Test on Sphaerotheca fuliginea (Powdery Mildew on Cucurbits)
as §2, §3
After 24 hours, the plants are contaminated by spraying the cotyledons with an aqueous suspension of Sphaerotheca fuliginea spores (100 000 spores per ml). The spores are collected from infected plants. The contaminated gherkin plants are incubated at about 20° C. and at 70-80% relative humidity.
Grading (% of efficacy) is carried out 12 days after the contamination, in comparison with the control plants.

Regarding `CC1CCc2cccc(NC(=O)c3cccnc3C(F)F)c21` (racemic) [Example 4], in data set [1], the “logP^[a]” value was 2.63^[a]. In addition, the Eff. % turned out to be 71% with Alternaria brassicae (dose 500 ppm); 75% in the data set on Pyrenophora teres (dose 500 ppm); 97% in the data set on Puccinia recondita (dose 500 ppm); 100% in the data set on Septoria tritici (500 ppm); 100% in the data set with Uromyces appendiculatus (500 ppm).

`CCC1(CC)OC(C)c2c(NC(=O)c3cccnc3C(F)F)cccc21` (racemic) [Example 25]: the “logP^[a]” value in data set [1] is 2.86^[a]. In addition, the Eff. % with Botrytis cinerea (dose 500 ppm) is reported as 96%; in the data set with Puccinia recondita (dose 500 ppm), 98%; in the data set on Septoria tritici (500 ppm), 86%; with Uromyces appendiculatus (500 ppm) it was 100%.

In the case of `CC(C)(C)C1CCc2c(NC(=O)c3cccnc3C(F)F)cccc21` (racemic) [Example 39], the “logP^[a]” value in data set [1] was 3.78^[a]. Also, the Eff. % is listed as 83% in the data set with Pyrenophora teres (dose 500 ppm); 98% with Puccinia recondita (dose 500 ppm); 86% with Septoria tritici (500 ppm); 94% in the data set on Sphaerotheca fuliginea (500 ppm); 100% with Uromyces appendiculatus (500 ppm).

With `CC1CC2(CC2)c2cccc(NC(=O)c3cccnc3C(F)F)c21` (racemic) [Example 42], the “logP^[a]” value in data set [1] is 3.00^[a]. The Eff. % in the data set on Alternaria brassicae (dose 500 ppm) stood at 83%; in the data set on Botrytis cinerea (dose 500 ppm) it was 99%; in the data set on Puccinia recondita (dose 500 ppm), 100%; in the data set with Septoria tritici (500 ppm), 79%; in the data set on Sphaerotheca fuliginea (500 ppm), 89%; in the data set on Uromyces appendiculatus (500 ppm), 100%.

On to `CCCCON=C1CC(C)c2c(NC(=O)c3cccnc3C(F)F)cccc21` (racemic) [Example 51], for which, in data set [1], the “logP^[a]” value is 3.18^[a]. Besides, the Eff. % in the data set on Alternaria brassicae (dose 500 ppm) is reported as 93%; in the data set with Pyrenophora teres (dose 500 ppm) it was 83%; with Puccinia recondita (dose 500 ppm), 75%; in the data set with Uromyces appendiculatus (500 ppm) it was 70%.

Turning to `CCON=C1CC(C)c2c(NC(=O)c3cccnc3C(F)F)cccc21` (racemic) [Example 52], in data set [1], the “logP^[a]” value is 2.71^[a]. The Eff. % with Alternaria brassicae (dose 500 ppm) came to 86%; in the data set on Pyrenophora teres (dose 500 ppm), 75%; in the data set on Septoria tritici (500 ppm) it was 86%; in the data set with Uromyces appendiculatus (500 ppm) it was 93%.

Turning to `CCC1(CC)OC(C(C)C)c2c(NC(=O)c3cccnc3C(F)F)cccc21` (racemic) [Example 56], the “logP^[a]” value in data set [1] was 3.64^[a]. Also, the Eff. % in the data set on Alternaria brassicae (dose 500 ppm) is listed as 93%; with Pyrenophora teres (dose 500 ppm), 92%; in the data set with Puccinia recondita (dose 500 ppm), 88%; in the data set with Septoria tritici (500 ppm), 93%; with Sphaerotheca fuliginea (500 ppm), 98%; in the data set with Uromyces appendiculatus (500 ppm), 100%.

In the case of `CCC1(CC)CC(C)c2c(NC(=O)c3cccnc3C(F)F)cccc21` (racemic) [Example 78], the “logP^[a]” value in data set [1] was 4.01^[a]. Further, the Eff. % was 80% in the data set on Alternaria brassicae (dose 100 ppm); 98% in the data set on Botrytis cinerea (dose 100 ppm); 100% in the data set with Puccinia recondita (dose 100 ppm); 98% with Sphaerotheca fuliginea (100 ppm); 100% in the data set on Uromyces appendiculatus (100 ppm).

Regarding `CCC1(CC)CC(C)c2c(NC(=O)c3ccc(Cl)nc3C(F)F)cccc21` (racemic) [Example 80], in data set [1], the “logP^[a]” value was 4.72^[a]. Further, the Eff. % in the data set with Botrytis cinerea (dose 100 ppm) was 70%; with Puccinia recondita (dose 100 ppm) it was 94%; with Uromyces appendiculatus (100 ppm) it was 91%.

As for `CC1CC(C)(C)c2c(F)ccc(NC(=O)c3cccnc3C(F)F)c21` (stereo not shown) [Example 2], the “logP^[a]” value in data set [1] was 3.35^[a]. For the same molecule, the Eff. % in the data set on Alternaria brassicae (dose 500 ppm) is recorded as 98%; in the data set on Botrytis cinerea (dose 500 ppm), 97%; in the data set on Puccinia recondita (dose 500 ppm), 100%; in the data set with Septoria tritici (500 ppm), 100%; in the data set with Sphaerotheca fuliginea (500 ppm), 100%; in the data set with Uromyces appendiculatus (500 ppm), 100%.

As for `CC1CC(C)(C)c2c(C3CC3)ccc(NC(=O)c3cccnc3C(F)F)c21` (stereo not shown) [Example 10], in data set [1], the “logP^[a]” value was 3.79^[a]. For the same molecule, the Eff. % in the data set with Botrytis cinerea (dose 500 ppm) is 100%; with Puccinia recondita (dose 500 ppm) it was 100%; with Uromyces appendiculatus (500 ppm), 99%.

On to `O=C(Nc1cccc2c1CCC21CC1)c1cccnc1C(F)F` [Example 20], for which, in data set [1], the “logP^[a]” value was 2.78^[a]. Further, the Eff. % in the data set on Botrytis cinerea (dose 500 ppm) came out at 90%; in the data set on Puccinia recondita (dose 500 ppm), 94%; with Uromyces appendiculatus (500 ppm) it was 100%.

With `CC1c2c(NC(=O)c3cccnc3C(F)F)cccc2C(C)(C)C1C` (stereo not shown) [Example 33], the “logP^[a]” value in data set [1] was 3.48^[a]. In addition, the Eff. % in the data set on Alternaria brassicae (dose 500 ppm) worked out at 100%; in the data set on Botrytis cinerea (dose 500 ppm) it was 97%; in the data set on Puccinia recondita (dose 500 ppm), 100%; in the data set with Septoria tritici (500 ppm) it was 100%; in the data set on Sphaerotheca fuliginea (500 ppm), 100%; in the data set on Uromyces appendiculatus (500 ppm), 100%.

For `CC1Cc2c(NC(=O)c3cccnc3C(F)F)cccc2C1C` (stereo not shown) [Example 36], the “logP^[a]” value in data set [1] is 3.06^[a]. Further, the Eff. % in the data set with Pyrenophora teres (dose 500 ppm) was determined as 75%; in the data set with Puccinia recondita (dose 500 ppm), 98%; in the data set with Uromyces appendiculatus (500 ppm), 100%.

In the case of `CCC1Cc2c(NC(=S)c3cccnc3C(F)F)cccc2C1(C)C` (stereo not shown) [Example 69], the “logP^[a]” value in data set [1] is 4.16^[a]. Moreover, the Eff. % in the data set with Pyrenophora teres (dose 100 ppm) is 70%; in the data set with Puccinia recondita (dose 100 ppm), 100%; in the data set on Septoria tritici (100 ppm), 80%; in the data set with Sphaerotheca fuliginea (100 ppm), 100%; in the data set on Uromyces appendiculatus (100 ppm) it was 100%.

As to `CC1c2c(cccc2NC(=O)c2cccnc2C(F)F)CC1(C)C` (stereo not shown) [Example 85], the “logP^[a]” value in data set [1] is 3.29^[a]. The Eff. % in the data set on Botrytis cinerea (dose 100 ppm) was 98%; with Puccinia recondita (dose 100 ppm), 97%; in the data set on Septoria tritici (100 ppm), 79%; with Sphaerotheca fuliginea (100 ppm), 100%.
